Laboratory results from PubChem BioAssay (NCI).
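Results reflect a 48-hour exposure of cells in 96-well plates to compound at five concentrations. TGI denotes the concentration required for complete inhibition of growth.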

Tests used:
Assay in all cases: growth of human tumour cells (NCI), 48 h
EKVX NSCLC = test system: EKVX NSCLC
KM12 colon = test system: KM12 colon
NCI/ADR-RES ovarian = test system: NCI/ADR-RES ovarian
RXF 393 renal = test system: RXF 393 renal
NCI-H460 lung = test system: NCI-H460 lung
A549 NSCLC = test system: A549 NSCLC
SK-MEL-28 melanoma = test system: SK-MEL-28 melanoma
OVCAR-4 ovarian = test system: OVCAR-4 ovarian
M14 melanoma = test system: M14 melanoma
HT29 colon = test system: HT29 colon
SF-295 CNS = test system: SF-295 CNS
MCF7 breast = test system: MCF7 breast
UO-31 renal = test system: UO-31 renal
NCI-H23 lung = test system: NCI-H23 lung
OVCAR-8 ovarian = test system: OVCAR-8 ovarian
SF-539 CNS = test system: SF-539 CNS
K-562 leukemia = test system: K-562 leukemia
OVCAR-5 ovarian = test system: OVCAR-5 ovarian
CAKI-1 renal = test system: CAKI-1 renal
SK-MEL-2 melanoma = test system: SK-MEL-2 melanoma

SMILES | TGI (EKVX NSCLC) [µM] | TGI (KM12 colon) [µM] | TGI (NCI/ADR-RES ovarian) [µM] | TGI (RXF 393 renal) [µM] | TGI (NCI-H460 lung) [µM] | TGI (A549 NSCLC) [µM] | TGI (SK-MEL-28 melanoma) [µM] | TGI (OVCAR-4 ovarian) [µM] | TGI (M14 melanoma) [µM] | TGI (HT29 colon) [µM] | TGI (SF-295 CNS) [µM] | TGI (MCF7 breast) [µM] | TGI (UO-31 renal) [µM] | TGI (NCI-H23 lung) [µM] | TGI (OVCAR-8 ovarian) [µM] | TGI (SF-539 CNS) [µM] | TGI (K-562 leukemia) [µM] | TGI (OVCAR-5 ovarian) [µM] | TGI (CAKI-1 renal) [µM] | TGI (SK-MEL-2 melanoma) [µM]
CCc1c(N=[N+]=[N-])c2ccccc2oc1=O | > 100 | > 100 | > 100 | > 100 | > 100 | > 100 | > 100 | > 100 | > 100 | > 100 | > 100 | > 100 | > 100 | > 100 | > 100 | > 100 | > 100 | – | – | –
Cc1c(S(=O)(=O)/N=C(\NO)Nc2ccc(Cl)cc2)sc2ccc(Cl)cc12 | 25.1 | 41.7 | 37.9 | 47.1 | 76.8 | 33.8 | 32.9 | 38.3 | 31.2 | 34.3 | 41 | – | 52.5 | 33.6 | 32.2 | 42.1 | > 100 | 33.3 | 34.3 | 34.4
Cc1cccc2c(=O)c3cccc(CC(=O)O)c3oc12 | > 100 | > 100 | > 100 | – | > 100 | > 100 | > 100 | > 100 | > 100 | > 100 | > 100 | > 100 | > 100 | > 100 | > 100 | > 100 | > 100 | – | > 100 | > 100
COc1ccc(Cc2c3cc(OC)c(OC)cc3cc[n+]2C)cc1 | > 59 | > 23 | – | > 42 | – | > 46.5 | > 58.6 | > 40.5 | > 28.1 | > 27.1 | > 24.7 | – | > 51.4 | > 40.2 | > 48.6 | > 53.1 | > 100 | > 100 | > 61.7 | > 45.8
COc1cc(/C=C(\C#N)C(=O)c2ccccc2)cc(OC)c1OC | > 100 | > 100 | – | 96.8 | > 100 | > 100 | > 100 | > 100 | > 100 | > 100 | > 100 | – | > 100 | > 100 | > 100 | > 100 | > 100 | > 100 | > 100 | > 100
Nc1cc2c(C3OC(CO)C(O)C3O)[nH]nc2c(=S)[nH]1 (configuration not stated) | > 100 | > 100 | – | > 100 | > 100 | > 100 | > 100 | > 100 | > 100 | > 100 | > 100 | – | > 100 | > 100 | > 100 | > 100 | > 100 | > 100 | > 100 | > 100
CSc1cnc2ccccc2c1Sc1cn(C)c2ccccc2c1=O | > 100 | > 100 | – | > 100 | > 100 | > 100 | > 100 | > 100 | > 100 | > 100 | > 100 | – | > 100 | 65.7 | 45 | > 100 | > 100 | > 100 | – | > 100
C/C(=N\NC(N)=O)C(CN1CCOCC1)C(c1ccccc1)c1c(O)c2ccccc2oc1=O (configuration not stated) | > 100 | > 100 | > 100 | – | – | > 100 | > 100 | > 100 | > 100 | > 100 | – | > 100 | > 100 | > 100 | > 100 | > 100 | > 100 | > 100 | > 100 | > 100
CCCCCCCC(=O)N1C2CC3CCC2(CS1(=O)=O)C3(C)C (configuration not stated) | > 100 | 74.8 | – | 31.8 | > 100 | > 100 | > 100 | > 100 | 41 | > 10 | 50.8 | 35.8 | 52.4 | > 100 | > 100 | 41.5 | – | > 100 | 61.7 | –
C[C@H](O)CCC(=O)c1ccoc1 | > 100 | > 100 | – | > 100 | > 100 | > 100 | > 100 | > 100 | > 100 | > 100 | > 100 | – | > 100 | > 100 | > 100 | > 100 | > 100 | > 100 | > 100 | > 100
CCCCc1c2c([n+]([O-])c3c1CCCC3)CCCC2 | > 100 | > 100 | – | – | > 100 | > 100 | > 100 | – | – | > 100 | > 100 | – | > 100 | > 100 | > 100 | > 100 | > 100 | – | – | –
COC(=O)c1c(C(=O)OC)c2ccccn2c1-c1cc(C)cc2c1C(=O)C=CC2=O | 21.7 | – | 27.8 | 18.5 | – | 25.7 | 17.9 | 18.8 | 14.5 | 16.6 | 18 | – | 6.05 | 14.8 | 14.4 | 15.7 | 7.63 | 16.9 | 12.4 | 17.2
CCOC(=O)c1nc2ccccc2nc1Oc1ccc(F)cc1 | > 100 | > 100 | > 100 | > 100 | > 100 | > 100 | > 100 | – | > 100 | > 100 | > 100 | > 100 | > 100 | – | > 100 | > 100 | > 100 | > 100 | – | > 100
